From US20210214303A1, “SCORPION VENOM BENZOQUINONE DERIVATIVES AND USES THEREOF” (priority 2018, published 2021)
Converted amounts (≈) assume the structure as drawn. “Also recorded” adds a separate entry of the source.

Legend:
E. coli = assay: activity against gram negative E. coli; format: cell-based
Staphylococcus aureus [1] = assay: disk-diffusion assay; format: cell-based
Description: Ampicillin (5 μg) was used as a positive control.
This difference was confirmed using a broth microdilution assay (FIG. 3D). The minimum inhibitory concentration (MIC) for S. aureus growth was 4 μg/mL for the red 1,4 benzoquinone and 6 μg/mL for the blue 1,4 benzoquinone (FIG. 3D, Table 1). Ampicillin (MIC=0.5 μg/mL) was used as a positive control (ESCMID Eo (2003) Clin. Microbiol. Infect. 9: ix-xv; Pieterse et al., (2010) Brazil. J. Microbiol. 41: 133-145). These compounds were bactericidal at their MICs, killing 90% of S. aureus in 6 h and 99.9% in 24 h (Table 2).

[2] = system: Mycobacterium tuberculosis H37Rv; assay: microbe, parasite or virus in culture; format: cell-based; details: M. tuberculosis H37Rv, broth microdilution
[3] = system: peripheral blood mononuclear cells (PBMCs); assay: cytotoxicity assay, LDH release; format: cell-based, human; details: 25 μM, 12 hours
Description: FIG. 14B illustrates a cytotoxic effect of the 1,4 benzoquinones of the disclosure on peripheral blood mononuclear cells (PBMCs). PBMCs were incubated with the red and blue 1,4 benzoquinones at a concentration of 25 μM for 12 hours, and cell death was evaluated by the release of the stable cytosolic enzyme lactate dehydrogenase. […] Each result is reported as the mean±SD.
Cytotoxicity to PBMCs and to Neoplastic Cells: The cytotoxicity of the 1,4 benzoquinones of the disclosure was tested with peripheral blood mononuclear cells (PBMCs) and various human neoplastic cell lines: A549 (adenocarcinomic lung epithelial cells), Jurkat (T cell leukemia), TE 671 (rhabdomyosarcoma cells) and SH-SY5Y (bone marrow neuroblastoma cells).
PBMCs were obtained from healthy blood donors and isolated by Ficoll-Paque PLUS density gradient centrifugation and resuspended in RPMI-1640 medium supplemented with 10% fetal calf serum. Cells were incubated at 37° C. in 5% CO2 overnight and non-adherent cells were recovered and used for subsequent experiments. The neoplastic cell lines were cultured according to the ATCC guidelines.
For cytotoxicity assays, cells were resuspended in DMEM without phenol red, supplemented with 2% heat-inactivated fetal calf serum. Cells were plated in 96-well polystyrene cell culture plates (2×10^4 to 2×10^5 cells/well depending on the cell type) and incubated at 37° C. in 5% CO2 for 8 hours to promote cell adhesion to the well's surface. The red and blue 1,4 benzoquinones were administered to achieve final concentrations of 1, 5, and 25 μM. Cells were then incubated at 37° C. in 5% CO2 for 12 hours. Following the incubation period, plates were centrifuged at 300×g for 10 minutes and supernatants were harvested to evaluate cell viability with the CytoTox 96@ Non-Radioactive Cytotoxicity Assay (Promega). This assay quantitatively measures lactate dehydrogenase (LDH), a stable cytosolic enzyme that is released upon cell lysis. The released LDH in the culture supernatants was measured with a colorimetric coupled enzymatic assay according to the manufacturer's instructions.

Jurkat cells = assay: Annexin V / viability dye flow cytometry apoptosis assay; format: cell-based; details: 25 μM; 0, 4, 8 and 12 h
Description: In this assay, Jurkat cells were incubated with either the red or blue 1,4 benzoquinone at a concentration of 25 μM for 0, 4, 8 and 12 h. Cells were then stained with the Fixable Viability Dye eFluor 780 and FITC Annexin V and analyzed using flow cytometry. Positive staining with Annexin V is a marker of early apoptosis, and positive staining with both Annexin V and the viability dye is a marker of late apoptosis/necrosis. Double negatives are live cells. Cells were grouped into three categories (live, early apoptotic, and late apoptotic/necrotic). Data from three independent experiments are shown as mean±SEM (standard error of mean).

[4] = system: clinical isolates of methicillin-resistant S. aureus (MRSA); assay: Minimum inhibitory concentration, Table 1, MRSA clinical isolates; format: cell-based, Staphylococcus aureus; on sensitive/resistant (growth): key: S Sensitive (did not grow the crop); R resistant (bacterial growth)
fresh human erythrocytes = assay: Hemolysis assay; format: cell-based; details: 2 hours, all concentrations tested (even higher than 100 μg/mL)
Description: FIG. 14A illustrates a cytotoxic activity assay of the red and blue 1,4 benzoquinones. Hemolysis was evaluated using fresh human erythrocytes. Lysis was evaluated by the absorbance of the supernatant at 415 nm after 2 hours of incubation with different concentrations of the 1,4 benzoquinones. Triton X-100 was used as positive control.
Hemolysis assay: The hemolytic activity was evaluated for both of the 1,4 benzoquinones using fresh human erythrocytes. Fresh human erythrocytes were washed four times with phosphate buffered saline (PBS) and incubated for 2 h at 37° C. with different concentration of the 1,4 benzoquinones. A gradient of Triton X-100 was used as positive control of hemolysis. After incubation, the erythrocytes suspension was centrifuged at 400×g for 10 min and supernatant was recovered. Hemolysis was determined by the absorbance of the supernatant at 415 nm.

[5] = system: Staphylococcus aureus ATCC 29213; assay: Minimum inhibitory concentration, Table 1, strain ATCC 29213; format: cell-based; details: for sensitive/resistant (growth): ATCC 29213; on sensitive/resistant (growth): key: S Sensitive (did not grow the crop); R resistant (bacterial growth)
Staphylococcus aureus [6] = assay: Time-kill assay; format: cell-based; details: for killing of S. aureus: at their MICs

In the case of `COC1=CC(=O)C(SC)=C(OC)C1=O` [red 1,4 benzoquinone, 3,5-dimethoxy-2-(methylthio)cyclohexa-2,5-diene-1,4-dione], the “activity against gram negative E. coli” value (E. coli) is reported as “neither compound was found to have appreciable activity; also recorded: Neither 1,4 benzoquinone showed activity”, the “inhibition of S. aureus growth” value (Staphylococcus aureus [1]) is reported as “clear inhibition; also recorded: inhibitory activity” and the MIC [2] is reported as greater than 160 µg/mL. The PBMCs killed [3] was 60%, the “cytotoxic effect on PBMCs (LDH release)” value [3] was “cytotoxic against PBMCs” and the “apoptosis (Annexin V staining, loss of cell membrane asymmetry)” value (Jurkat cells) was “triggers apoptosis”. The MIC ([4]; Staphylococcus aureus, MRSA) was greater than 64 µg/mL, the MIC ([4]; strain 01 2075) was greater than 64 µg/mL and the “sensitive/resistant (growth)” value ([4]; strain 01 2075, 0.5 μg/ml) was “R”. The “sensitive/resistant (growth)” value ([4]; strain 01 2075, 1 μg/ml) was “R”, the “sensitive/resistant (growth)” value ([4]; strain 01 2075, 2 μg/ml) was “R” and the “sensitive/resistant (growth)” value ([4]; strain 01 2075, 4 μg/ml) was “R”. The “sensitive/resistant (growth)” value ([4]; strain 01 2075, 8 μg/ml) was “R”, the “sensitive/resistant (growth)” value ([4]; strain 01 2075, 16 μg/ml) was “R” and the “sensitive/resistant (growth)” value ([4]; strain 01 2075, 32 μg/ml) was “R”. The “sensitive/resistant (growth)” value ([4]; strain 01 2075, 64 μg/ml) was “R”, the MIC ([4]; strain 01 2104) was greater than 64 µg/mL and the “sensitive/resistant (growth)” value ([4]; strain 01 2104, 0.5 μg/ml) was “R”. The “sensitive/resistant (growth)” value ([4]; strain 01 2104, 1 μg/ml) was “R”, the “sensitive/resistant (growth)” value ([4]; strain 01 2104, 2 μg/ml) was “R” and the “sensitive/resistant (growth)” value ([4]; strain 01 2104, 4 μg/ml) was “R”. The “sensitive/resistant (growth)” value ([4]; strain 01 2104, 8 μg/ml) was “R”, the “sensitive/resistant (growth)” value ([4]; strain 01 2104, 16 μg/ml) was “R” and the “sensitive/resistant (growth)” value ([4]; strain 01 2104, 32 μg/ml) was “R”. The “sensitive/resistant (growth)” value ([4]; strain 01 2104, 64 μg/ml) was “R”, the “sensitive/resistant (growth)” value ([4]; strain 09 3001, 0.5 μg/ml) was “R” and the “sensitive/resistant (growth)” value ([4]; strain 09 3001, 1 μg/ml) was “R”. The “sensitive/resistant (growth)” value ([4]; strain 09 3001, 2 μg/ml) was “R”, the “sensitive/resistant (growth)” value ([4]; strain 09 3001, 4 μg/ml) was “R” and the “sensitive/resistant (growth)” value ([4]; strain 09 3001, 8 μg/ml) was “R”. The “sensitive/resistant (growth)” value ([4]; strain 09 3001, 16 μg/ml) was “R”, the “sensitive/resistant (growth)” value ([4]; strain 09 3001, 32 μg/ml) was “R” and the “sensitive/resistant (growth)” value ([4]; strain 09 3001, 64 μg/ml) was “R”. The MIC ([4]; strain 21 2001) was greater than 64 µg/mL, the “sensitive/resistant (growth)” value ([4]; strain 21 2001, 0.5 μg/ml) was “R” and the “sensitive/resistant (growth)” value ([4]; strain 21 2001, 1 μg/ml) was “R”. For the same compound, the “sensitive/resistant (growth)” value ([4]; strain 21 2001, 2 μg/ml) was “R”, the “sensitive/resistant (growth)” value ([4]; strain 21 2001, 4 μg/ml) was “R” and the “sensitive/resistant (growth)” value ([4]; strain 21 2001, 8 μg/ml) was “R”. For the same compound, the “sensitive/resistant (growth)” value ([4]; strain 21 2001, 16 μg/ml) was “R”, the “sensitive/resistant (growth)” value ([4]; strain 21 2001, 32 μg/ml) was “R” and the “sensitive/resistant (growth)” value ([4]; strain 21 2001, 64 μg/ml) was “R”. The hemolytic activity (fresh human erythrocytes) was “no erythrocyte hemolysis was observed; also recorded: Neither 1,4 benzoquinone showed hemolytic activity”, the “sensitive/resistant (growth)” value ([5]; 0.5 μg/ml) was “R” and the “sensitive/resistant (growth)” value ([5]; 1 μg/ml) was “S”. For the same compound, the “sensitive/resistant (growth)” value ([5]; 2 μg/ml) was “S”, the “sensitive/resistant (growth)” value ([5]; 4 μg/ml) was “S” and the “sensitive/resistant (growth)” value ([5]; 8 μg/ml) was “S”. The “sensitive/resistant (growth)” value ([5]; 16 μg/ml) was “S”, the “sensitive/resistant (growth)” value ([5]; 32 μg/ml) was “S” and the “sensitive/resistant (growth)” value ([5]; 64 μg/ml) was “S”. The MIC ([5]; ATCC29213, Staphylococcus aureus ATCC 29213) was 1 µg/mL (≈ 4.67 µM), the “Colony-forming Units (CFU)” value (Staphylococcus aureus [6]; 0 hr incubation, 2 × MIC) was 311 Colony-forming units per plate and the “Colony-forming Units (CFU)” value (Staphylococcus aureus [6]; 0 hr incubation, MIC) was 298 Colony-forming units per plate. The “Colony-forming Units (CFU)” value (Staphylococcus aureus [6]; 6 hr incubation, 2 × MIC) was 9 Colony-forming units per plate, the “Colony-forming Units (CFU)” value (Staphylococcus aureus [6]; 6 hr incubation, MIC) was 22 Colony-forming units per plate and the “Colony-forming Units (CFU)” value (Staphylococcus aureus [6]; 12 hr incubation, 2 × MIC) was 0 Colony-forming units per plate. The “Colony-forming Units (CFU)” value (Staphylococcus aureus [6]; 12 hr incubation, MIC) was 3 Colony-forming units per plate, the “Colony-forming Units (CFU)” value (Staphylococcus aureus [6]; 24 hr incubation, 2 × MIC) was 0 Colony-forming units per plate and the “Colony-forming Units (CFU)” value (Staphylococcus aureus [6]; 24 hr incubation, MIC) was 0 Colony-forming units per plate. For the same compound, the “killing of S. aureus” value (Staphylococcus aureus [6]; in 6 h) was 90% and the “killing of S. aureus” value (Staphylococcus aureus [6]; in 24 h) was 99.9%.
